In ChEMBL document CHEMBL3244168, “Synthesis and antitumor activity of preactivated isophosphamide analogues bearing modified alkylating functionalities” (J Med Chem, 1978):
≈ marks a conversion by molar mass, not a printed value.

Experiments:
L1210 [1] = assay: Cytotoxicity against mouse L1210 cells assessed as growth inhibition after 72 hrs; format: functional; conditions: L1210, 72 h, read-out: ED50 (the source's name)
L1210 [2] = assay: Antileukemic activity against mouse L1210 cells allografted in ip dosed BDF1 mouse assessed as maximum tolerated dose for survival over 30 days administered 24 hrs; format: functional
L1210 [3] = assay: Ratio of ILSmax to ILS30 for antileukemic activity against mouse L1210 cells allografted in ip dosed BDF1 mouse; format: functional
L1210 [4] = assay: Antileukemic activity against mouse L1210 cells allografted in ip dosed BDF1 mouse administered 24 hrs; format: functional
Mus musculus [5] = assay: Acute toxicity in iv dosed BDF1 mouse; format: organism-based; conditions: in vivo
L1210 [6] = assay: Ratio of Cmax to Cmin for antileukemic activity against mouse L1210 cells allografted in iv dosed BDF1 mouse assessed as survival over 60 days; format: functional
Mus musculus [7] = assay: Acute toxicity in ip dosed BDF1 mouse; format: organism-based; conditions: in vivo
L1210 [8] = assay: Antileukemic activity against mouse L1210 cells allografted in BDF1 mouse assessed as mean survival time at 50 mg/kg, ip administered 24 hrs (Rvb 4.6 +/- 0.16 days); format: functional; conditions: route intraperitoneal
L1210 [9] = assay: Ratio of Cmax to Cmin for antileukemic activity against mouse L1210 cells allografted in po dosed BDF1 mouse assessed as survival over 60 days; format: functional
L1210 [10] = assay: Antileukemic activity against mouse L1210 cells allografted in ip dosed BDF1 mouse assessed as maximum tolerated dose for survival over 60 days administered 24 hrs; format: functional
L1210 [11] = assay: Antileukemic activity against mouse L1210 cells allografted in iv dosed BDF1 mouse assessed as maximum tolerated dose for survival over 60 days administered 24 hrs; format: functional
Rattus norvegicus [12] = assay: Acute toxicity in iv dosed Wistar rat; format: organism-based; conditions: in vivo
L1210 [13] = assay: Antileukemic activity against mouse L1210 cells allografted in BDF1 mouse assessed as increase in life span at 200 mg/kg, ip administered 24 hrs relative to control; format: functional; conditions: route intraperitoneal
Mus musculus [14] = assay: Acute toxicity in po dosed BDF1 mouse; format: organism-based; conditions: in vivo
Rattus norvegicus [15] = assay: Acute toxicity in ip dosed Wistar rat; format: organism-based; conditions: in vivo
L1210 [16] = assay: Antileukemic activity against mouse L1210 cells allografted in BDF1 mouse assessed as increase in life span at 100 mg/kg, ip administered 24 hrs relative to control; format: functional; conditions: route intraperitoneal
L1210 [17] = assay: Antileukemic activity against mouse L1210 cells allografted in iv dosed BDF1 mouse assessed as survival over 60 days administered 24 hrs; format: functional; conditions: read-out: MED
L1210 [18] = assay: Antileukemic activity against mouse L1210 cells allografted in BDF1 mouse assessed as mean survival time at 20 mg/kg, ip administered 24 hrs (Rvb 4.6 +/- 0.16 days); format: functional; conditions: route intraperitoneal
L1210 [19] = assay: Antileukemic activity against mouse L1210 cells allografted in po dosed BDF1 mouse assessed as maximum tolerated dose for survival over 60 days administered 24 hrs; format: functional
L1210 [20] = assay: Antileukemic activity against mouse L1210 cells allografted in BDF1 mouse assessed as increase in life span at 20 mg/kg, ip administered 24 hrs relative to control; format: functional; conditions: route intraperitoneal
L1210 [21] = assay: Antileukemic activity against mouse L1210 cells allografted in BDF1 mouse assessed as mean survival time at 100 mg/kg, ip administered 24 hrs (Rvb 4.6 +/- 0.16 days); format: functional; conditions: route intraperitoneal
L1210 [22] = assay: Antileukemic activity against mouse L1210 cells allografted in BDF1 mouse assessed as mean survival time at 200 mg/kg, ip administered 24 hrs (Rvb 4.6 +/- 0.16 days); format: functional; conditions: route intraperitoneal
L1210 [23] = assay: Ratio of Cmax to Cmin for antileukemic activity against mouse L1210 cells allografted in ip dosed BDF1 mouse assessed as survival over 60 days; format: functional
L1210 [24] = assay: Antileukemic activity against mouse L1210 cells allografted in BDF1 mouse assessed as increase in life span at 50 mg/kg, ip administered 24 hrs relative to control; format: functional; conditions: route intraperitoneal
L1210 [25] = assay: Antileukemic activity against mouse L1210 cells allografted in po dosed BDF1 mouse assessed as survival over 60 days administered 24 hrs; format: functional; conditions: read-out: MED
L1210 [26] = assay: Antileukemic activity against mouse L1210 cells allografted in ip dosed BDF1 mouse assessed as survival over 60 days administered 24 hrs; format: functional; conditions: read-out: MED
Rattus norvegicus [27] = assay: Acute toxicity in po dosed Wistar rat; format: organism-based; conditions: in vivo

CCS(=O)(=O)OCCN1C(OO)CCOP1(=O)N(C)CCCl (stereo unspecified)
EC50 (L1210 [1]): 1 µg/mL (≈ 2.63 µM) | ILSmax (L1210 [2]): 70 mg/kg | Ratio (L1210 [3]): 14 | ILS30 (L1210 [4]): 5 mg/kg

O=P1(NCCCl)OCCC(OO)N1CCCl (stereo unspecified)
LD10 (Mus musculus [5]): 220 mg/kg | Ratio (L1210 [6]): 1.8 | LD10 (Mus musculus [7]): 220 mg/kg | MST (L1210 [8]): 12.5 days | Ratio (L1210 [9]): 1 | MTD (L1210 [10]): 70 mg/kg | MTD (L1210 [11]): 160 mg/kg | LD10 (Rattus norvegicus [12]): 250 mg/kg | ILS at 200 mg/kg (L1210 [13]): > 476% | LD10 (Mus musculus [14]): 1000 mg/kg | LD10 (Rattus norvegicus [15]): 250 mg/kg | ILS at 100 mg/kg (L1210 [16]): > 416% | EC50 (L1210 [1]): 1.8 µg/mL (≈ 6.14 µM) | minimal effective dose (L1210 [17]): 90 mg/kg | MST (L1210 [18]): 8.9 days | MTD (L1210 [19]): 400 mg/kg | ILS at 20 mg/kg (L1210 [20]): 93% | ILSmax (L1210 [2]): 100 mg/kg | Ratio (L1210 [3]): 7 | ILS30 (L1210 [4]): 15 mg/kg | MST (L1210 [21]): >23.8 days | MST (L1210 [22]): >26.5 days | Ratio (L1210 [23]): 2.3 | ILS at 50 mg/kg (L1210 [24]): 172% | minimal effective dose (L1210 [25]): 400 mg/kg | minimal effective dose (L1210 [26]): 30 mg/kg | LD10 (Rattus norvegicus [27]): 800 mg/kg

CN(CCOS(C)(=O)=O)P1(=O)OCCC(OO)N1CCCl (stereo unspecified)
EC50 (L1210 [1]): 0.5 µg/mL (≈ 1.36 µM) | ILSmax (L1210 [2]): 60 mg/kg | Ratio (L1210 [3]): 20 | ILS30 (L1210 [4]): 3 mg/kg

CS(=O)(=O)OCCN1C(OO)CCOP1(=O)NCCCl (stereo unspecified)
EC50 (L1210 [1]): 0.8 µg/mL (≈ 2.27 µM) | ILSmax (L1210 [2]): 75 mg/kg | Ratio (L1210 [3]): 38 | ILS30 (L1210 [4]): 2 mg/kg

CN(CCCl)P1(=O)OCCC(OO)N1CCBr (stereo unspecified)
EC50 (L1210 [1]): 0.5 µg/mL (≈ 1.42 µM) | ILSmax (L1210 [2]): 35 mg/kg | Ratio (L1210 [3]): 5 | ILS30 (L1210 [4]): 7 mg/kg

CN(CCBr)P1(=O)OCCC(OO)N1CCCl (stereo unspecified)
EC50 (L1210 [1]): 0.3 µg/mL (≈ 0.853 µM) | ILSmax (L1210 [2]): 70 mg/kg | Ratio (L1210 [3]): 12 | ILS30 (L1210 [4]): 6 mg/kg

CCS(=O)(=O)OCCN(C)P1(=O)OCCC(OO)N1CCCl (stereo unspecified)
EC50 (L1210 [1]): 0.8 µg/mL (≈ 2.1 µM) | ILSmax (L1210 [2]): 80 mg/kg | Ratio (L1210 [3]): 8 | ILS30 (L1210 [4]): 10 mg/kg
